The text below walks through data of patent US4977144A, “Imidazo[4,5-b]pyridine derivatives as cardiovascular agents” (Ciba-Geigy Corporation, priority 1989, dated 1990).

Test [1] concerns the target T1, adenosine-2 (A-2) receptor (Rattus norvegicus, UniProt P30543).
T1 construct: striatal membrane preparations from corpus striatum of male Sprague-Dawley rats; from tissue; host or cells: corpus striatum of male Sprague-Dawley rats (membrane preparation)
The test is described as follows: adenosine-2 (A-2) receptor binding: inhibition of specific binding of 3H-NECA in rat striatal membrane preparations. On the set-up: species or system male Sprague-Dawley rats. Particulars: for IC50: displacement of 4 nM 3H-NECA in the presence of 50 nM cyclopentyladenosine, rat striatal membranes, read-out: IC50 in the in vitro adenosine-2 receptor binding assay.

Test [2] deals with spontaneous hypertensive rat. The test is described as follows: blood pressure lowering effect in the spontaneous hypertensive rat on oral administration. The class given is in vivo. Particulars: at a dose of about 10 mg/Kg p.o. The method, then:
Indicative of in vivo adenosine receptor agonist activity, the hypotensive activity of the compounds of the invention can be measured in normotensive or spontaneous hypertensive rats on intravenous or oral administration.
The blood pressure lowering effect in the spontaneous hypertensive rat is determined on oral administration as known in the art.

T1 sequence (P30543 whole entry): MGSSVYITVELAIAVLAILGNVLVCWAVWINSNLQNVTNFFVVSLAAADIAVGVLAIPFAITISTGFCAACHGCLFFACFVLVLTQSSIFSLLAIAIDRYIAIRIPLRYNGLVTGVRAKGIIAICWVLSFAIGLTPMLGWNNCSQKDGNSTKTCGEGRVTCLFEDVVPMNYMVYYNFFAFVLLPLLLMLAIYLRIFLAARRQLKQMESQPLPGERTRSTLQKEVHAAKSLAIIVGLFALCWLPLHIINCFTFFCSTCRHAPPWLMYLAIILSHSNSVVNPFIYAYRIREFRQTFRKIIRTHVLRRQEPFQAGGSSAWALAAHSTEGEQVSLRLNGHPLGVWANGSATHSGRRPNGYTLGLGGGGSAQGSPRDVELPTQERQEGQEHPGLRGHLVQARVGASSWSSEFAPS

For `Nc1cc(NCCC2CCCCC2)nc2c1ncn2[C@@H]1O[C@H](CO)[C@@H](O)[C@H]1O` [Example 1, 7-amino-3-β-D-ribofuranosyl-N-(2-cyclohexylethyl)-3H-imidazo[4,5-b] pyridin-5-amine], the “greater potency at the A-2 receptor than at the A-1 receptor” value in test [1] (A-2 binding versus A-1 binding) was “more than 100 fold”. In addition, the IC50 in test [1] was around 100 nM. The “lowers blood pressure in the spontaneous hypertensive rat model” value in test [2] is “effectively lowers blood pressure”.
In the case of `COc1ccc(CCNc2cc(N)c3ncn([C@@H]4O[C@H](CO)[C@@H](O)[C@H]4O)c3n2)cc1` [Example 15(1)], in test [1], the IC50 was around 70 nM.

Broadly, the IC50 is the concentration that gives 50% inhibition.
